Results published in article PMC7400207, “It Takes Two: Dimerization Is Essential for the Broad-Spectrum Predatory and Defensive Activities of the Venom Peptide Mp1a from the Jack Jumper Ant Myrmecia pilosula” (Biomedicines, 2020).
Marks after values point to notes of the source that are not given here. Where no end group is shown, it is not given here.

Columns and labels:
[1] = system: F11 cells; assay: FLIPR calcium assay, activation of F11 cells; type: cell-based; conditions: F11 cells, FLIPR; for Neuronal Cell Activation (EC50): Calcium 4 dye, max-min fluorescence in 300 s after peptide addition, PSS with 0.1% BSA, mean ± SEM, triplicate
Method: F11 cells were cultured as previously described. Cells were maintained on Ham’s F12 media supplemented with 10% fetal bovine serum (FBS), 100 µM hypoxanthine, 0.4 µM aminopterin, and 16 µM thymidine (Hybri-MaxTM, Sigma Aldrich, North Ryde, Australia). Then, 384-well imaging plates (Corning) were seeded 48 h prior to imaging resulting in 90–95% confluence at imaging. Cells were incubated for 30 min with the Calcium 4 assay component A according to the manufacturer’s instructions (Molecular Devices, Sunnyvale, CA, USA) in physiological salt solution (PSS; composition in mM: 140 NaCl, 11.5 D-glucose, 5.9 KCl, 1.4 MgCl2, 1.2 NaH2PO4, 5 NaHCO3, 1.8 CaCl2, 10 HEPES) at 37°C. Fluorescence was measured using a fluorescent imaging plate reader (FLIPR^TETRA) equipped with a CCD camera (Excitation: 470–490 nm, Emission: […]) (Molecular Devices, Sunnyvale, CA, USA). Signals were read every second for 10 s before, and 300 s after the addition of peptides in PSS supplemented with 0.1% bovine serum albumin. All data are the mean ± SEM of assays performed in triplicate. Maximum–minimum fluorescence in the 300 s period after peptide addition was recorded as the response. Concentration–response data were fitted with a four-parameter Hill equation (variable slope) using GraphPad Prism 8 to obtain effective concentration (EC50) values.

[2] = system: Drosophila melanogaster; assay: Drosophila melanogaster microinjection assay; type: in vivo; conditions: intrathoracic injection, 50 nL, adult female flies, lethality at 24 h; three dose-response curves, ± SEM
Method: The insecticidal activity of the chemically synthesized 1a and analogues thereof were determined by injection into adult female D. melanogaster aged 3–5 days (mass 0.7–0.9 mg) as described previously. Analogues were dissolved in water and intrathoracically injected using pulled glass capillaries at a volume of 50 nL per fruit fly, and the results were compared against an equivalent injection volume of water alone. All injections were performed in the morning or early afternoon. At 24 h post-injection flies were monitored for lethality. Dose–response curves were constructed using 7–10 doses per analogue (each dose tested in eight flies) and three separate dose–response curves were constructed for each analogue. The lethality in the groups receiving the analogues were adjusted using the respective control group lethality using the Henderson-Tilton formula [20]. The median lethal dose (LD50) of each analogue was calculated based on the three dose–response curves using GraphPad Prism 8.0 [21]. One-way ANOVA followed by Dunnett’s multiple comparison test were used to compare LD50 values.

[3] = system: human red blood cells; conditions: cited from earlier work
Method: (§1) Table 2 Summary of bioassay data for synthetic Mp1a and analogues, including effective concentration (EC50) for activation of F11 cells, concentrations that caused 50% inhibition (IC50) for inhibition of larval development of H. contortus; median lethal dose (LD50) for lethal insecticidal effects on D. melanogaster; concentrations required to induce 50% cell death (CC50) for effects on viability o | column: Hemolysis (HC50 µM) ^b

[4] = system: Haemonchus contortus; assay: microbe, parasite or virus in culture; type: cell-based; conditions: H. contortus Kirby isolate, egg to infective L3, 6 days, 26 °C; three experiments of duplicate assays, ± SEM; for 1a the component at higher concentrations (about 90% of population); read-out: Anthelmintic Activity (IC50), inhibition of larval development
Method: Sheep were infected with H. contortus Kirby isolate (field isolate from the University of New England Kirby Research Farm in 1986; susceptible to all commercial anthelmintics) and housed at the Commonwealth Scientific and Industrial Research Organisation (CSIRO) FD McMaster Laboratory, Armidale, NSW. All animal procedures were approved by the FD McMaster Animal Ethics Committee, CSIRO (Approval Number AEC 17/12, approval date 15.6.2017). Eggs were prepared from overnight fecal collection as described. In brief, feces were filtered through mesh filters, settled, and supernatant removed by vacuum. Eggs were recovered by density centrifugation using 10 and 25% (w/v) sucrose solutions, centrifuged at 650× g for 7 min. Eggs were recovered from the interface of the two sucrose layers, rinsed with distilled water, sterilized with bleach, rinsed again, and diluted to 4500 eggs/mL. Tylosin tartrate (800 μg/mL) and amphotericin B (25.0 μg/mL) were added, and eggs were used immediately for larval development assays.
Assays were conducted using 96-well microtitre plates, with each well containing 50 μL of 2% agar, 20 μL of egg solution and 20 μL of peptide solution in water. The commercial anthelmintic levamisole (Sigma Aldrich) was used as a positive control (final 1% v/v). Negative controls contained equivalent volumes of water or DMSO (final 1% v/v). Plates were incubated at 26 °C for six days. After 24 h, each well was fed with 10 μL of a nutrient solution containing Escherichia coli XL1-Blue1 (grown overnight at 37 °C) and growth medium. The growth medium consisted of yeast extract (1% w/v), Earle’s salt solution (10% v/v), saline solution (0.9% NaCl, w/v), and sodium bicarbonate (1 mM) in Luria-Bertani medium (LB). Larvae were killed and stained with Lugol’s iodine solution after six days. Larvae that had developed to the infective L3 stage were counted, and the numbers in treated assay wells were expressed as a percentage of the number of infective L3 stage larvae in multiple control wells. Concentrations that caused 50% inhibition (IC50 values) were calculated from three experiments of duplicate assays.

[5] = system: HEK293 cells; conditions: HEK293, 24 h, resazurin; cited from earlier work
Method: as §1, with “Cytotoxicity (CC50” for “Hemolysis (HC50”

[6] = system: mouse dorsal root ganglion (DRG) cells; assay: Calcium imaging of mammalian sensory neurons; type: cell-based; conditions: 1 µM peptide, Fluo-4 calcium imaging, neuronal and non-neuronal cells
Method: Calcium imaging of a heterogenous population of mouse dorsal root ganglion (DRG) sensory neurons was performed as previously described. In brief, dorsal root ganglion (DRG) cells isolated from 4–8-week-old male C57BL/6 mice under ethics approval TRI/IMB/093/17 (University of Queensland Animal Ethics Committee, approval date 31/03/2017) were dissociated and then plated in Dulbecco’s modified Eagle’s medium (Gibco, Grand Island, NY, USA) containing 10% fetal bovine serum (FBS; Assaymatrix, Melbourne, Australia) and penicillin/streptomycin (Gibco) on a 96-well poly-D-lysine–coated culture plate (Corning, Lowell, MA, USA), and maintained overnight. Cells were loaded with Fluo-4 AM calcium indicator as per the manufacturer’s instructions (Thermo Fisher Scientific, Grand Island, NY, USA). After loading for 1 h, the dye solution was replaced with assay solution (Hanks’ balanced salt solution and 20 mM HEPES). Fluorescence corresponding to intracellular calcium ([Ca^2+]i) of typically 100–150 DRG cells per experiment was monitored in parallel using a Nikon Ti-E deconvolution inverted microscope, equipped with a Lumencor Spectra LED light source. Images were acquired at a 20× objective at one frame/s (excitation 485 nm; emission 521 nm). For each experiment, baseline fluorescence was monitored for 30 s and then a wash of assay solution was applied.

[7] = system: trypanosomes; conditions: cited from earlier work
Source text: However, the anthelmintic activity of the dimers was only observed at concentrations 10-fold higher than required for neuronal cell activation, cytotoxicity and hemolysis.

[8] = system: Drosophila melanogaster; conditions: same assay; cited from earlier work

Compound | Neuronal Cell Activation (EC50) [1] | Insecticidal Activity (LD50) [2] | Hemolysis (HC50) [3] [µM] | IC50 [4] [µM] | Cytotoxicity (CC50) [5] [µM] | Concentration at which cytolysis (rapid increase in fluorescence followed by decrease to or below baseline) was observed [1] [µM] | Effect on [Ca2+]i of DRG cells [6] | Selectivity for trypanosomes over human red blood cells [7] [fold] | LD50 (insecticidal potency) [8] [pmol/g]
CC[C@H](C)[C@H](N)C(=O)N[C@@H](CC(=O)O)C(=O)N[C@@H](Cc1c[nH]c2ccccc12)C(=O)N[C@@H](CCCCN)C(=O)N[C@@H](CCCCN)C(=O)N[C@H](C(=O)N[C@@H](CC(=O)O)C(=O)N[C@@H](Cc1c[nH]c2ccccc12)C(=O)N[C@@H](CCCCN)C(=O)N[C@@H](CCCCN)C(=O)N[C@H](C(=O)N[C@@H](CO)C(=O)N[C@@H](CCCCN)C(=O)N[C@@H](CCCCN)C(=O)N[C@H](C(=O)N[C@H]1CSSC[C@@H](C(=O)N[C@@H](CCCCN)C(=O)N[C@@H](Cc2ccccc2)C(=O)N[C@@H](CC(C)C)C(N)=O)NC(=O)[C@H](C)NC(=O)[C@H](CCCCN)NC(=O)[C@H](CC(C)C)NC(=O)[C@H](CCSC)NC(=O)[C@H](C(C)C)NC(=O)[C@H](CCCCN)NC1=O)[C@@H](C)O)C(C)C)C(C)C [Analogue 3a] | inactive | > 600 pmol/g | > 20 | 46.8 ± 0.6 | > 20 |  |  |  | 
CC[C@H](C)[C@H](NC(=O)[C@@H](N)CC(C)C)C(=O)NCC(=O)N[C@@H](CC(C)C)C(=O)N[C@H](C(=O)N[C@@H](CO)C(=O)N[C@@H](CCCCN)C(=O)NCC(=O)N[C@H](C(=O)N[C@H]1CSSC[C@@H](C(=O)N[C@@H](CCCCN)C(=O)N[C@@H](CCCCN)C(=O)N[C@H](C(=O)N[C@@H](CC(C)C)C(=O)N[C@@H](CCCCN)C(=O)N[C@@H](CCC(N)=O)C(N)=O)C(C)C)NC(=O)[C@H](C(C)C)NC(=O)[C@H]([C@@H](C)O)NC(=O)[C@H](CCCCN)NC(=O)[C@H](C(C)C)NC(=O)[C@H](CC(C)C)NC(=O)[C@H](C(C)C)NC1=O)[C@@H](C)O)C(C)C [Analogue 4a] | inactive | > 600 pmol/g | > 15 | 65.5 ± 5.5 | > 15 |  |  |  | 
CC[C@H](C)[C@H](N)C(=O)N[C@@H](CC(=O)O)C(=O)N[C@@H](Cc1c[nH]c2ccccc12)C(=O)N[C@@H](CCCCN)C(=O)N[C@@H](CCCCN)C(=O)N[C@H](C(=O)N[C@@H](CC(=O)O)C(=O)N[C@@H](Cc1c[nH]c2ccccc12)C(=O)N[C@@H](CCCCN)C(=O)N[C@@H](CCCCN)C(=O)N[C@H](C(=O)N[C@@H](CO)C(=O)N[C@@H](CCCCN)C(=O)N[C@@H](CCCCN)C(=O)N[C@H](C(=O)N[C@H]1CSSC[C@@H](C(=O)N[C@@H](CCCCN)C(=O)N[C@@H](Cc2ccccc2)C(=O)N[C@@H](CC(C)C)C(N)=O)NC(=O)[C@H](C)NC(=O)[C@H](CCCCN)NC(=O)[C@H](CC(C)C)NC(=O)[C@H](CCSC)NC(=O)[C@H](C(C)C)NC(=O)[C@H](CCCCN)NC(=O)[C@@H](NC(=O)[C@@H](NC(=O)[C@H](CCCCN)NC(=O)[C@H](CCCCN)NC(=O)[C@H](CO)NC(=O)[C@@H](NC(=O)[C@H](CCCCN)NC(=O)[C@H](CCCCN)NC(=O)[C@H](Cc2c[nH]c3ccccc23)NC(=O)[C@H](CC(=O)O)NC(=O)[C@@H](NC(=O)[C@H](CCCCN)NC(=O)[C@H](CCCCN)NC(=O)[C@H](Cc2c[nH]c3ccccc23)NC(=O)[C@H](CC(=O)O)NC(=O)[C@@H](N)[C@@H](C)CC)C(C)C)C(C)C)[C@@H](C)O)CSSC[C@@H](C(=O)N[C@@H](CCCCN)C(=O)N[C@@H](Cc2ccccc2)C(=O)N[C@@H](CC(C)C)C(N)=O)NC(=O)[C@H](C)NC(=O)[C@H](CCCCN)NC(=O)[C@H](CC(C)C)NC(=O)[C@H](CCSC)NC(=O)[C@H](C(C)C)NC(=O)[C@H](CCCCN)NC1=O)[C@@H](C)O)C(C)C)C(C)C [Analogue 5a] |  | 415.4 ± 29.6 ^a pmol/g |  |  |  | ≥ 10 | activated all DRG cells and caused dye leakage |  | 
H-IDWKKVDWKKVSKKTSKVMLKASKFL-NH2 [Analogue 3b] | inactive | > 600 pmol/g | > 20 | 64.9 ± 6.3 | > 20 |  |  |  | 
H-LIGLVSKGTSVLVKTVSKKVLKQ-NH2 [Analogue 4b] | inactive | > 600 pmol/g | > 15 | 61.3 ± 4.4 | > 15 |  |  |  | 
cupiennin-1a: broadly cytolytic peptide from the wandering spider Cupiennius salei (GFGALFKFLAKKVAKTVAKQAAKQGAKYVVNKQME; ends and bridges not checked; UniProt P83619 1-35, looked up) |  |  |  |  |  |  |  | > 400 | 
β-diguetoxin-Dc1a |  |  |  |  |  |  |  |  | 59
ω-hexatoxin-Hv1a |  |  |  |  |  |  |  |  | 9
